Measured values published in a melting point compilation (Tetko et al.; mined from patent text by program, amines drawn as free bases though some values may be those of a salt).

Row | melting point | SMILES
1 | 61 to 63 °C | CCOC(=O)C(C)Oc1ccc(Nc2ccc(C(F)(F)F)cc2[N+](=O)[O-])cc1 (configuration not stated)
2 | 222 °C | Cn1cncc1C(O)(c1ccc(Cl)cc1)c1ccc2c(c1)c(-c1cccc(Cl)c1)cc1cnnn12 (configuration not stated)
3 | 77 to 83 °C | CN(C)C=C(C=CC#N)c1ccccc1
4 | 78 to 80 °C | Cc1cc2ccccc2n1-c1ccnc2ccccc12
5 | 353 to 354 °C | O=S(=O)(O)c1nc2cc(Cl)c(Cl)cc2[nH]1
6 | 185 to 186 °C | COc1cc(/C=C/c2nc3ccccc3c(=O)o2)ccc1OC(C)=O
7 | 85 to 86.5 °C | COC(=O)C=CC(=S)c1ccc(-c2ccccc2)cc1
8 | 129 to 130 °C | CCOC(=NC(=O)Nc1ccc(OC(F)(F)F)cc1)N1Cc2ccccc2-c2ccccc2C1
9 | 110 to 113 °C | CN(C)CCNc1ccnc2cc(C(F)(F)F)ccc12
10 | 121 °C | CCCNC(=O)c1ccc(CCCc2cc(S(C)(=O)=O)ccc2OCc2ccccc2)cc1
11 | 200 to 202 °C | CCOC(=O)Cc1c(C(=O)O)c(C)c(C(=O)c2ccc(C)cc2)n1C
12 | 152 to 154 °C | CC(=O)Nc1cnc(-c2cc(Cl)ccc2Cl)c(N)n1
13 | 122 to 124 °C | O=C1C(=CO)C(c2ccc(Cl)cc2)c2ccc(Cl)cc21 (configuration not stated)
14 | 198 to 199 °C | COc1ccc(-c2nc(C)cc(O)n2)cc1
15 | 135 to 136 °C | O=C(O)CCC(=O)N1CCCc2cc(S(=O)(=O)N3CCN(c4cccc(Cl)c4)CC3)ccc21
16 | 123 to 125 °C | O=C1c2cc(Cl)ccc2OCC1n1ccnc1 (configuration not stated)
17 | 68 to 69 °C | CCOC(=O)C(C)(C)Sc1ccc(O)cc1
18 | 197 to 198 °C | COc1cccc(-c2nc(NO)nc(Nc3cccc([N+](=O)[O-])c3)n2)c1
19 | 128 to 131 °C | COC(=O)c1ccc(N=CC=Cc2ccccc2)cn1
20 | 35 to 37 °C | O=C(Cl)c1cc(F)c(Cl)c([N+](=O)[O-])c1Cl
21 | 149 to 151 °C | Cn1cc(-c2cccc(F)c2)c(=O)c(-c2cccc(F)c2)c1
22 | 170 °C | CCCCN1CCCC1CNC(=O)c1cc(S(N)(=O)=O)cc2c1OC(C)C2 (configuration not stated)
23 | 102 to 109 °C | CC(=O)Nc1ccc(OCC(O)CNC(C)(C)C)c(C2=NNC(=O)CC2)c1 (configuration not stated)
24 | 240 to 242 °C | O=C(CN1CCOCC1)N1CCN(Cc2ccc3c(c2)-c2[nH]nc(-c4ccsc4)c2C3)CC1

Row | melting point | SMILES
25 | 172 to 175 °C | O=C(O)c1cn(C2CSC2)c2c(F)c(F)c(F)cc2c1=O
26 | 205 to 206 °C | COCCN1C(=O)C(C)(C)C(=O)Nc2cc(CN(CCn3cc(C)c4occc4c3=O)Cc3cccnc3C)ccc21
27 | 161 to 162 °C | C[C@]1(CN2CCN(C(=O)N3CC=C(c4ccc(Cl)cc4)CC3)CC2)Cn2cc([N+](=O)[O-])nc2O1
28 | 161 °C | CCOC(=O)/C(=N\OCC(=O)N(CC)CC)c1csc(N)n1
29 | 127 to 128 °C | Cc1ccc2nc(C)c(CCN3CCN(c4cccc(Cl)c4)CC3)c(=O)n2c1
30 | 34 to 36 °C | OC[C@@H](O)CCc1ccccc1
31 | 112 to 115 °C | COc1cccc(-c2cc(Cl)ncn2)c1
32 | 136 to 137 °C | CN1C(=O)Cc2cc(C(=O)CN3CCN(c4ccccc4)CC3)cnc21
33 | 90 °C | OCC(CO)Oc1ccc(I)cc1
34 | 248 to 250 °C | O=C1NC(=S)CCC1N1Cc2c(cccc2[N+](=O)[O-])C1=S (configuration not stated)
35 | 76.5 to 77.5 °C | CCCCCCCCCCCCCCCCCCCCC(NC(C)=O)(C(=O)OCC)C(=O)OCC
36 | 218 to 220 °C | O=c1c(O)cn(-c2ccccc2F)nc1-c1ccnn1-c1ccccc1
37 | 76 to 77 °C | C[C@H](N)C(c1ccccc1)c1ccccc1
38 | 246 to 247 °C | CNC(=O)c1cc(-c2ccc(OC)cc2)n[nH]c1=O
39 | 119 to 130 °C | CNC(=O)CN1CCc2cc(Nc3ncc(Cl)c(Nc4c(F)cccc4C(=O)NC)n3)c(OC)cc2CC1
40 | 94 to 95 °C | O=C1c2ccccc2C(=O)N1CCNCCCO
41 | 265 to 266 °C | Cc1nc2c(O)c(CC[C@@H](O)c3ccccc3)c(C(=O)N3CCC3)cc2n1C
42 | 187 to 189 °C | O=S(=O)(Nc1cc(Br)nc(Br)c1)c1cccc(Cl)c1
43 | > 300 °C | Cn1ncc2[nH]c3cccc(-c4ccc(O)cc4)c3c(=O)c21
44 | 184 to 186 °C | CCOc1nccc(-c2c(-c3ccc(F)cc3)ncn2[C@H]2CC[C@H](O)CC2)n1
45 | 248 to 253 °C | O=C(c1cccc(N2CC(=O)N(S(=O)(=O)c3ccc(Cl)cc3)C2=O)c1)N1CCOCC1
46 | 175 to 177 °C | Clc1cc(-c2ccccc2)nc2nn(-c3ccccc3)cc12
47 | 180 to 182 °C | CCN(c1ccc(Cl)cc1C(N)=S)S(=O)(=O)c1ccc(C)cc1
48 | 77 to 77.5 °C | Cc1cc(CCCOc2c(C)cc(-c3noc(C(Cl)(Cl)Cl)n3)cc2C)on1

Row | melting point | SMILES
49 | 178 to 180 °C | CN(C)C(=O)n1nc2cc(Cl)ccc2c1N
50 | 89 to 91 °C | CN[C@@H]1CN(C(=O)c2nn(C)c3ccccc23)C[C@@H]1C (relative stereo)
51 | 94 °C | COc1ccc(C(=O)CCC#N)cc1
52 | 180 to 181 °C | NC(=O)CC(=O)c1ccc(-c2ccc(Cl)cc2)o1
53 | 133 to 134 °C | COc1ccc(CCOc2c(-c3ccc(S(C)(=O)=O)cc3)cnn(CC(F)(F)F)c2=O)cc1OC
54 | 119 to 121 °C | O=[N+]([O-])c1cccc(Oc2nccnc2Cl)c1
55 | 152 °C | CC(C)Cc1nccc2c(CC(=O)O)cccc12
56 | 92 to 94 °C | CCOC(=O)C[C@H](O)C[C@H](O)/C=C/c1c(-c2ccc(F)cc2)nc(N(C)S(C)(=O)=O)nc1C(C)C
57 | 136 to 137 °C | COC(=O)c1cc(C(=O)N2CCCOCC2)c2cc(Cc3ccc(F)cc3)cnc2c1O
58 | 127 to 128 °C | O=C(C[C@@H](c1cc(F)cc(F)c1)C(F)(F)F)N1C(=O)OC[C@@H]1Cc1ccccc1
59 | 216 to 218 °C | Brc1ccc2c(c1)N=C(N1CCOCC1)c1cccc3c1N2CC3
60 | 150 to 151 °C | COC(=O)OC(C)OC1=C(C(=O)Nc2ccccn2)N(C)S(=O)(=O)c2ccccc21 (configuration not stated)
61 | 93 to 94 °C | CC(C)(C)C1=CC(O)(C(F)(F)F)C=C(C(C)(C)C)C1=O
62 | > 250 °C | N#Cc1[nH]c(Br)c(Br)c1-c1ccc(Cl)cc1
63 | 91 to 93 °C | COc1cccc(CNC(=O)c2ncc3ccccc3n2)c1
64 | 75 °C | O=Cc1ccc(CO)cn1
65 | 110 to 112 °C | COc1ccc(CNn2nnc3c(Cl)ncnc32)cc1
66 | 85 to 90 °C | CCOC(=O)CC(=O)c1cc(Oc2ccccc2)c(NS(C)(=O)=O)cc1OCc1ccccc1
67 | 160 to 163 °C | CC(c1ccc(C=Cc2ccccc2)s1)N(O)C(N)=O (configuration not stated)
68 | 112 °C | CC(C)(CO)NS(=O)(=O)c1cncc(Br)c1
69 | 237 to 239 °C | CCNc1nc(Cl)nc2nc[nH]c12
70 | 132 to 133 °C | COC(=O)c1cccc2oc(SCCCN3CCN(CC(=O)Nc4c(C(C)C)cccc4C(C)C)CC3)nc12
71 | 66 to 69 °C | CCC(=CC(CSc1nnnn1-c1ccccc1)=NO)C(C)[N+](=O)[O-] (configuration not stated)
72 | 250 to 252 °C | O=C1Nc2ccccc2Sc2nccn21

Row | melting point | SMILES
73 | 142 °C | CCCC(NC(=O)Nc1cccc(C)c1)C(=S)N(CC(=O)OC(C)(C)C)c1ccccc1 (racemic)
74 | 279 to 280 °C | Cc1cc(C=CC#N)cc(Oc2[nH]c(=O)[nH]c(=O)c2C(C)C)c1
75 | 268 °C | Cc1csc2c1c(-c1ccccc1Cl)nc(=O)n2C
76 | 195 to 196 °C | CC(C)Oc1ccc(NC(=O)OCc2cc3cc(-c4ccc(F)cc4)ccc3o2)c(C(=O)O)c1
77 | 160 to 162 °C | CN(C)Cc1cccc(-c2csc(N=C(N)N)n2)n1
78 | 194 to 195 °C | CC1(c2ccccc2)CN(c2ccnc(NC(=O)NCc3ccccn3)c2)C(=O)O1 (configuration not stated)
79 | 169 to 170 °C | CC1(C)OCc2cc([C@@H](O)C(=O)N[C@H]3CCc4ccc(O)cc4C3)ccc2O1
80 | 62 to 63 °C | N=C1C=CC=CC1Cc1cccc2c1NCC2 (configuration not stated)
81 | 194 °C | N#Cc1ccc(CC2CCN(C(=O)C(=O)Nc3ccc4[nH]c(=O)oc4c3)CC2)cc1
82 | 72 to 73 °C | COc1ccc(C(=O)c2cc(OC)c(OC)c(OC)c2)cc1
83 | 81 to 82 °C | CCN(CC)C(=O)Nc1cccc(Cl)c1
84 | 179 to 182 °C | CCOC(=O)c1cnc(N2CCn3ccnc3C2)nc1NCc1ccc(OC)c(Cl)c1
85 | 63 to 65 °C | N#Cc1ccc(OC[C@H](O)CO)cc1
86 | 100 to 102 °C | COc1ccc(-n2nc(CO)cc2-c2ccc(C)cc2)cc1
87 | 121 to 122 °C | CS(=O)(=O)N(Cc1ccc(Cl)cc1)CC(O)(Cn1cncn1)c1ccc(Cl)cc1Cl (configuration not stated)
88 | 263 to 265 °C | Cn1c(-c2nnc(N)s2)cnc1[N+](=O)[O-]
89 | 90 to 91 °C | CCOc1cccc(CC(=O)O)c1OCCn1cc(C(=O)NCc2ccc(Cl)cc2Cl)c(OC(C)C)n1
90 | 205 to 215 °C | Cn1c(N)cc(=O)n1-c1ccccc1
91 | 107 to 108 °C | COc1ccc(C=C2CCN(C(=O)OCc3ccccc3)CC2)cc1[N+](=O)[O-]
92 | 203 to 205 °C | NS(=O)(=O)C1C=CC=CC1(CCNC(=O)C=Cc1cccs1)OCCOC(F)(F)F (configuration not stated)
93 | 112 °C | CC(=O)OC1CSC(Oc2cccc(-c3ccncc3)c2)C(OC(C)=O)C1OC(C)=O (configuration not stated)
94 | 164 to 165 °C | COC(=O)C1(n2c(=O)[nH]c3ccccc3c2=O)CCCC1
95 | 164 to 165 °C | CCOc1ccc(C2=NN(c3ccc(C4=NNC(=O)CC4C)cc3)C(=O)C3CC=CCC23)cc1OCC (configuration not stated)
96 | 177 to 178 °C | CCOc1nn(Cc2ccc(OCc3nc4ccccc4n3C)cc2)cc1CCC(=O)O

Row | SMILES | melting point
97 | COC(=O)[C@@]12CN(Cc3ccccc3)C[C@@H]1[C@@](O)(c1ccc(SC)cc1)CC[C@H]2c1ccccc1 (racemic) | 124 to 126 °C
98 | Cc1cc(C2=NOC(c3cc(Cl)cc(Cl)c3)(C(F)(F)F)C2)ccc1C(=O)NC1CON(CCO)C1=O (configuration not stated) | 78 °C
99 | CCCCCn1c2ccccc2c2cc(C(=O)N3CCOCC3)ccc21 | 99 to 101 °C
100 | COc1ccc(C(O)CN)cc1OCc1ccccc1 (configuration not stated) | 101 to 102 °C
101 | C[C@@H]1C(=O)C[C@H]2C[C@@H]1OO[C@@]2(C)/C=C\c1ccc(C#N)cc1 | 125 °C
102 | CC(C)C(C)C=CC(C)C1CCC2C1(C)CCC1C23C=CC2(CC(O)CCC12C)OO3 (configuration not stated) | 165 to 169 °C
